The values below come from paper PMC9249726 (Clinical Pharmacokinetics, 2022).

One may read the fraction unbound as free concentration divided by total concentration.

Data set [1] is described as follows: Safety and tolerability of single oral dose milvexian 60 mg. Format: in vivo, human. Conditions: single oral 60 mg, all groups, in words.
Data set [2] concerns activated partial thromboplastin time (aPTT). Description: Pharmacodynamic biomarker aPTT after single-dose milvexian 60 mg. Format: in vivo, human. Conditions: for Time at which mean aPTT returned to baseline: post-dose; for Maximal percentage increase from baseline in aPTT: single oral 60 mg.
Data set [3] deals with cytochrome P450 (CYP)-3A4. Conditions: in words; no reference given; cited from earlier work.
For data set [4] the following is noted: for increase in exposure, AUC(INF) / increase in exposure, Cmax: mild or moderate hepatic impairment compared with normal hepatic function.
The next data set in a line: Plasma protein binding. Format: in vitro ADME, human. The following applies: for fraction unbound: human, plasma, oral, 60 mg, geometric mean (geometric CV).
The conditions of data set [5]: milvexian 60 mg; ref previous studies; cited from earlier work.
The conditions of data set [6]: animal studies; no reference given; cited from earlier work.
For data set [7] the following is noted: cited from earlier work.

Where two headings read alike, the source gives them in different places.

As to `C[C@@H]1CCC[C@H](n2cnc(-c3cc(Cl)ccc3-n3cc(Cl)nn3)cc2=O)c2cc(ccn2)-c2c(cnn2C(F)F)NC1=O` [milvexian], the “bleeding AEs” value in data set [1] is listed as “no bleeding AEs”. Moreover, the “deaths, SAEs, discontinuations due to AEs” value in data set [1] is given as “no serious adverse events (AEs), bleeding AEs, or discontinuations due to AEs”; in data set [1] (listed as Milvexian) it was “no deaths, SAEs, or treatment discontinuations due to AEs”. Further, the drug-induced liver injury entry in data set [1] is given as “no reports of drug-induced liver injury”. Further, the “Time at which mean aPTT returned to baseline” value in data set [2] (mild hepatic impairment) is ≤ 48 h; in data set [2] (moderate hepatic impairment), “approximately 72 h”; in data set [2] (normal hepatic function), ≤ 48 h. Also, the “Maximal percentage increase from baseline in aPTT” value in data set [2] (mild hepatic impairment) and in data set [2] (moderate hepatic impairment) was “approximately 90%” each time. Besides, the “increase in aPTT” value in data set [2] (participants with hepatic impairment (mild or moderate), single dose 60 mg) was 90%. In addition, in data set [3], the metabolising enzymes result is recorded as “predominantly metabolized by cytochrome P450 (CYP)-3A4, with minor contributions from CYP3A5”. The “variability in pharmacokinetics observed in this study” value in data set [4] (milvexian 60 mg, group with normal hepatic function) was > 50%. Further, the “increase in exposure, AUC(INF)” value in data set [4] (total milvexian) is “up to 18%”; in data set [4] (unbound milvexian), “up to 30%”. For the same compound, the results for the “increase in exposure, Cmax” value in data set [4] (total milvexian) and in data set [4] (unbound milvexian) were “up to 18%” and “up to 40%”, respectively. For the same compound, the fraction unbound came to 0.0852 in the data set “Plasma protein binding” (mild hepatic impairment (n = 9)), 0.0955 in “Plasma protein binding” (moderate hepatic impairment (n = 8)) and 0.0775 in “Plasma protein binding” (normal hepatic function (n = 9)). In addition, the Plasma protein binding result in the data set “Plasma protein binding” (in words) is given as “moderate to high”. In addition, the “geometric mean fraction of unbound milvexian” value in the data set “Plasma protein binding” (mild hepatic impairment) amounted to 8.52%; in the data set “Plasma protein binding” (moderate hepatic impairment), 9.55%; in the data set “Plasma protein binding” (normal hepatic function), 7.75%. In addition, in data set [5], the “expected variability in pharmacokinetics” value is recorded as ~ 20%. Further, in data set [6], the direct biliary excretion was ~ 30 % of the dose. For the same compound, the excretion through metabolism in data set [6] is given as 40–50 % of the administered dose.

For the compound `O=C(NC[C@H]1CN(c2ccc(N3CCOCC3=O)cc2)C(=O)O1)c1ccc(Cl)s1` [rivaroxaban], the “AUC increase in participants with moderate hepatic impairment” value in data set [7] (rivaroxaban 10 mg) is 2.27 fold.

Take `COc1ccc(-n2nc(C(N)=O)c3c2C(=O)N(c2ccc(N4CCCCC4=O)cc2)CC3)cc1` [apixaban]: the “AUC increase in participants with moderate hepatic impairment” value in data set [7] (apixaban 5 mg) is on record as 1.09 fold.
